Assay results as given in patent US4268630A, “Microbiological production of ketones from C3 -C6 alkanes” (priority 1979, dated 1981).

How the values were obtained:
[1] = tested on: cell extracts of Kloeckera sp. strain A2 NRRL Y-11,420; experiment: NAD+-dependent oxidation of secondary alcohols by cell extracts of yeasts; assay type: biochemical; details: for Conversion Rate, secondary alcohol to methylketone: cell extracts, grown on methanol, NAD+, gas chromatography
[2] = tested on: Methylobacter capsulatus Y (NRRL B-11,201); experiment: Oxidation of sec-alcohols to ketones by resting cell suspension; assay type: cell-based
Experimental: (§1) The pH of the nutrient medium was adjusted to 7.0 by the addition of acid or base and 50 ml. samples of the nutrient medium were charged into a plurality of 300 ml. shaker flasks. The shaker flasks were inoculated with an inoculating loop of cells from an agar plate containing homogeneous colonies of the microorganisms on the plate (the purity of the isolates was confirmed by microscopic examination). The isolates had been maintained on methanol (0.4% V/V) agar plates or on agar plates under an atmosphere of methane and air having a 1:1 V/V gas ratio which had been transferred every two weeks. For growth on methanol, the medium was supplemented with 0.4% methanol. For growth on methane, the gaseous phase of the inoculated flasks was replaced with a gas mixture comprised on methane and air having a ratio of 1:1 on a V/V basis. The inoculated flasks were sealed air-tight and were incubated on a rotary shaker of orbital radius 2.5 cm. at 250 rpm and at 30° C. for two days until turbidity in the medium had developed. The cells were harvested by centrifugation at 10,000×g. at 4° C. for 30 minutes. The cell pellet was washed twice with a 0.05 M phosphate buffer at a pH of 7.0 (containing 0.02 M MgCl2). The washed cells were then suspended in a 0.05 M phosphate buffer at pH 7.0.
(§2) A 0.5 ml. sample of each washed cell suspension (2 mg. cells) was put into 10 ml. vials at 4° C. which were sealed with a rubber cap. The gaseous phase of the vials was removed with vacuum and then was replaced with a gas mixture of the substrate reactant (i.e., alkane or secondary alcohol) and oxygen at a 1:1 V/V ratio. (In the case of a liquid substrate, i.e., secondary alcohol, 10 μl of the substrate was put in the 10 ml. vials). […] Samples of product (1-3 μl) were withdrawn periodically with a microsyringe and the products were analyzed by gas chromatography (ionization flame detector column).
(§3) The procedure in Example 1 was repeated wherein a plurality of the methane-utilizing methylotrophic microorganisms were each grown aerobically in a nutrient medium containing methane as the alcohol dehydrogenase enzyme inducer and as the major carbon and energy source for growth. The cells were harvested and washed as described in Example 1. The resting microbial cells of the induced methane-grown methane-utilizing methylotrophic microorganisms were then contacted with C3 -C6 secondary alcohols in a buffered solution by the procedure of Example 1.
(§4) In this example, the procedure in Example 1 was repeated except that a plurality of methane-utilizing methylotrophic microorganisms were each aerobically grown in a methanol-containing nutrient medium instead of a methane-containing medium. The nutrients in the medium were the same as indicated in Example 1 except that 0.4% V/V methanol was used as the alcohol dehydrogenase inducer and major source of carbon and energy for growth. Following growth, the cells were harvested and washed as described in Example 1. The resting cells of the induced methanol-grown methylotrophic microorganisms were then contacted with secondary alcohols in a buffered solution by the procedure described in Example 1.

[3] = tested on: Methylosinus sporium 5 (NRRL B-11,197); experiment: as above; assay type: cell-based
Experimental: as §1, §2, §3, §4

[4] = tested on: Methylomonas methanica S1 (NRRL B-11,199); experiment: as above; assay type: cell-based
Experimental: as §1, §2, §3, §4

[5] = tested on: Methylococcus capsulatus, Texas (ATCC 19069); experiment: as above; assay type: cell-based
Experimental: as §1, §2, §3, §4

[6] = tested on: Methylomonas albus BG8 (NRRL B-11,200); experiment: as above; assay type: cell-based
Experimental: as §1, §2, §3, §4

[7] = tested on: Methylocystis parvus OBBP (NRRL B-11,198); experiment: as above; assay type: cell-based
Experimental: as §1, §2, §3, §4

[8] = tested on: Methylobacterium organophilum XX (ATCC 27886); experiment: as above; assay type: cell-based
Experimental: as §1, §2, §3, §4
(§5) The procedure in Example 1 was repeated except that the methylotrophic microorganisms were each aerobically grown in an alcohol dehydrogenase-inducing growth medium containing methylamine or methyl formate as the alcohol dehydrogenase enzyme inducer and growth substrate instead of methane. The nutrients in the medium were the same as indicated in Example 1 except that 0.4% V/V of the alcohol dehydrogenase-inducer growth substrate was used as the major carbon and energy source. The cells were harvested and washed as described in Example 1. The resting microbial cells were then contacted with C3 -C6 secondary alcohols in a buffered solution by the conversion procedure of Example 1.

[9] = tested on: Methylosinus trichosporium OB3b (NRRL B-11,196); experiment: as above; assay type: cell-based
Experimental: as §1, §2, §3, §4, §5

[10] = tested on: Hansenula polymorpha ATCC 26012; experiment: Oxidation of sec-alcohols to ketones by cell suspensions of yeasts; assay type: cell-based
[11] = tested on: cell extracts of Candida utilis ATCC 26,387; experiment: NAD+-dependent oxidation of secondary alcohols by cell extracts of yeasts; assay type: biochemical; details: for Conversion Rate, secondary alcohol to methylketone: cell extracts, grown on methanol, NAD+, gas chromatography
[12] = spectrophotometric, 2-butanol as substrate

CCC(C)O (stereo not shown) [2-Butanol, 2-butanol]
Conversion Rate, secondary alcohol to methylketone [1]: 5.9 μmoles/hr/mg Protein
specific activities [1, 12]: 90 nmoles NAD^+ reduced per min. per mg. protein
Conversion Rates, sec-alcohol to methyl ketone ([2]; cells grown on methanol): 1.5 μmoles/hr/mg protein
Conversion Rates, sec-alcohol to methyl ketone ([2]; resting cells grown on methane): 0.84 μmoles/hr/mg protein
Conversion Rates, sec-alcohol to methyl ketone ([3]; cells grown on methanol): 3.5 μmoles/hr/mg protein
Conversion Rates, sec-alcohol to methyl ketone ([3]; resting cells grown on methane): 3.0 μmoles/hr/mg protein
Conversion Rates, sec-alcohol to methyl ketone ([4]; cells grown on methanol): 0.40 μmoles/hr/mg protein
Conversion Rates, sec-alcohol to methyl ketone ([4]; resting cells grown on methane): 0.39 μmoles/hr/mg protein
Conversion Rates, sec-alcohol to methyl ketone ([5]; cells grown on methanol): 0.70 μmoles/hr/mg protein
Conversion Rates, sec-alcohol to methyl ketone ([5]; resting cells grown on methane): 0.60 μmoles/hr/mg protein
Conversion Rates, sec-alcohol to methyl ketone ([6]; cells grown on methanol): 3.0 μmoles/hr/mg protein
Conversion Rates, sec-alcohol to methyl ketone ([6]; resting cells grown on methane): 3.5 μmoles/hr/mg protein
Conversion Rates, sec-alcohol to methyl ketone ([7]; cells grown on methanol): 1.0 μmoles/hr/mg protein
Conversion Rates, sec-alcohol to methyl ketone ([7]; resting cells grown on methane): 1.1 μmoles/hr/mg protein
Conversion Rates, sec-alcohol to methyl ketone ([8]; cells grown on methanol): 2.8 μmoles/hr/mg protein
Conversion Rates, sec-alcohol to methyl ketone ([8]; methyl formate-grown): 3.5 μmoles/hr/mg protein
Conversion Rates, sec-alcohol to methyl ketone ([8]; resting cells grown on methane): 2.5 μmoles/hr/mg protein
Conversion Rates, sec-alcohol to methyl ketone ([9]; cells grown on methanol): 4.1 μmoles/hr/mg protein
Conversion Rates, sec-alcohol to methyl ketone ([9]; methyl formate-grown): 4.5 μmoles/hr/mg protein
Conversion Rates, sec-alcohol to methyl ketone ([9]; resting cells grown on methane): 3.7 μmoles/hr/mg protein
Conversion Rate, sec-alcohol to ketone ([10]; growth substrate Ethanol): 4.8 μmoles/hr/mg of protein
Conversion Rate, sec-alcohol to ketone ([10]; growth substrate Methanol): 5.8 μmoles/hr/mg of protein
Conversion Rate, sec-alcohol to ketone ([10]; growth substrate Methylamine): 4.5 μmoles/hr/mg of protein
Conversion Rate, sec-alcohol to ketone ([10]; growth substrate Methylformate): 5.2 μmoles/hr/mg of protein
Conversion Rate, sec-alcohol to ketone ([10]; growth substrate Propylamine): 4.0 μmoles/hr/mg of protein
Conversion Rate, secondary alcohol to methylketone [11]: 4.92 μmoles/hr/mg Protein
specific activities [11, 12]: 78 nmoles NAD^+ reduced per min. per mg. protein

CCCCC(C)O (stereo not shown) [2-Hexanol, 2-hexanol]
Conversion Rate, secondary alcohol to methylketone [1]: 0.25 μmoles/hr/mg Protein
Conversion Rates, sec-alcohol to methyl ketone ([2]; cells grown on methanol): 0.12 μmoles/hr/mg protein
Conversion Rates, sec-alcohol to methyl ketone ([2]; resting cells grown on methane): 0.1 μmoles/hr/mg protein
Conversion Rates, sec-alcohol to methyl ketone ([4]; cells grown on methanol): 0.04 μmoles/hr/mg protein
Conversion Rates, sec-alcohol to methyl ketone ([4]; resting cells grown on methane): 0.01 μmoles/hr/mg protein
Conversion Rates, sec-alcohol to methyl ketone ([5]; cells grown on methanol): 1.3 μmoles/hr/mg protein
Conversion Rates, sec-alcohol to methyl ketone ([5]; resting cells grown on methane): 1.0 μmoles/hr/mg protein
Conversion Rates, sec-alcohol to methyl ketone ([7]; cells grown on methanol): 0.05 μmoles/hr/mg protein
Conversion Rates, sec-alcohol to methyl ketone ([7]; resting cells grown on methane): 0.065 μmoles/hr/mg protein
Conversion Rates, sec-alcohol to methyl ketone ([8]; cells grown on methanol): 1.1 μmoles/hr/mg protein
Conversion Rates, sec-alcohol to methyl ketone ([8]; methyl formate-grown): 0.70 μmoles/hr/mg protein
Conversion Rates, sec-alcohol to methyl ketone ([8]; resting cells grown on methane): 0.12 μmoles/hr/mg protein
Conversion Rates, sec-alcohol to methyl ketone ([9]; cells grown on methanol): 0.9 μmoles/hr/mg protein
Conversion Rates, sec-alcohol to methyl ketone ([9]; methyl formate-grown): 0.72 μmoles/hr/mg protein
Conversion Rates, sec-alcohol to methyl ketone ([9]; resting cells grown on methane): 0.07 μmoles/hr/mg protein
Conversion Rate, sec-alcohol to ketone ([10]; growth substrate Ethanol): 0.54 μmoles/hr/mg of protein
Conversion Rate, sec-alcohol to ketone ([10]; growth substrate Methanol): 0.72 μmoles/hr/mg of protein
Conversion Rate, sec-alcohol to ketone ([10]; growth substrate Methylamine): 0.62 μmoles/hr/mg of protein
Conversion Rate, sec-alcohol to ketone ([10]; growth substrate Methylformate): 0.70 μmoles/hr/mg of protein
Conversion Rate, sec-alcohol to ketone ([10]; growth substrate Propylamine): 0.48 μmoles/hr/mg of protein
Conversion Rate, secondary alcohol to methylketone [11]: 0.45 μmoles/hr/mg Protein

CCCC(C)O (stereo not shown) [2-Pentanol, 2-pentanol]
Conversion Rate, secondary alcohol to methylketone [1]: 1.2 μmoles/hr/mg Protein
Conversion Rates, sec-alcohol to methyl ketone ([2]; cells grown on methanol): 0.60 μmoles/hr/mg protein
Conversion Rates, sec-alcohol to methyl ketone ([2]; resting cells grown on methane): 0.5 μmoles/hr/mg protein
Conversion Rates, sec-alcohol to methyl ketone ([4]; cells grown on methanol): 0.45 μmoles/hr/mg protein
Conversion Rates, sec-alcohol to methyl ketone ([4]; resting cells grown on methane): 0.25 μmoles/hr/mg protein
Conversion Rates, sec-alcohol to methyl ketone ([5]; cells grown on methanol): 3.5 μmoles/hr/mg protein
Conversion Rates, sec-alcohol to methyl ketone ([5]; resting cells grown on methane): 2.5 μmoles/hr/mg protein
Conversion Rates, sec-alcohol to methyl ketone ([7]; cells grown on methanol): 0.82 μmoles/hr/mg protein
Conversion Rates, sec-alcohol to methyl ketone ([7]; resting cells grown on methane): 0.80 μmoles/hr/mg protein
Conversion Rates, sec-alcohol to methyl ketone ([8]; cells grown on methanol): 0.9 μmoles/hr/mg protein
Conversion Rates, sec-alcohol to methyl ketone ([8]; methyl formate-grown): 1.0 μmoles/hr/mg protein
Conversion Rates, sec-alcohol to methyl ketone ([8]; resting cells grown on methane): 0.82 μmoles/hr/mg protein
Conversion Rates, sec-alcohol to methyl ketone ([9]; cells grown on methanol): 2.9 μmoles/hr/mg protein
Conversion Rates, sec-alcohol to methyl ketone ([9]; methyl formate-grown): 1.5 μmoles/hr/mg protein
Conversion Rates, sec-alcohol to methyl ketone ([9]; resting cells grown on methane): 2.7 μmoles/hr/mg protein
Conversion Rate, sec-alcohol to ketone ([10]; growth substrate Ethanol): 1.1 μmoles/hr/mg of protein
Conversion Rate, sec-alcohol to ketone ([10]; growth substrate Methanol): 1.4 μmoles/hr/mg of protein
Conversion Rate, sec-alcohol to ketone ([10]; growth substrate Methylamine): 1.2 μmoles/hr/mg of protein
Conversion Rate, sec-alcohol to ketone ([10]; growth substrate Methylformate): 1.3 μmoles/hr/mg of protein
Conversion Rate, sec-alcohol to ketone ([10]; growth substrate Propylamine): 0.82 μmoles/hr/mg of protein
Conversion Rate, secondary alcohol to methylketone [11]: 0.82 μmoles/hr/mg Protein

CC(C)O [2-Propanol, 2-propanol]
Conversion Rate, secondary alcohol to methylketone [1]: 4.8 μmoles/hr/mg Protein
Conversion Rates, sec-alcohol to methyl ketone ([2]; cells grown on methanol): 0.52 μmoles/hr/mg protein
Conversion Rates, sec-alcohol to methyl ketone ([2]; resting cells grown on methane): 0.15 μmoles/hr/mg protein
Conversion Rates, sec-alcohol to methyl ketone ([3]; cells grown on methanol): 0.45 μmoles/hr/mg protein
Conversion Rates, sec-alcohol to methyl ketone ([3]; resting cells grown on methane): 0.30 μmoles/hr/mg protein
Conversion Rates, sec-alcohol to methyl ketone ([4]; cells grown on methanol): 0.35 μmoles/hr/mg protein
Conversion Rates, sec-alcohol to methyl ketone ([4]; resting cells grown on methane): 0.40 μmoles/hr/mg protein
Conversion Rates, sec-alcohol to methyl ketone ([5]; cells grown on methanol): 0.75 μmoles/hr/mg protein
Conversion Rates, sec-alcohol to methyl ketone ([5]; resting cells grown on methane): 0.08 μmoles/hr/mg protein
Conversion Rates, sec-alcohol to methyl ketone ([6]; cells grown on methanol): 1.5 μmoles/hr/mg protein
Conversion Rates, sec-alcohol to methyl ketone ([6]; resting cells grown on methane): 1.3 μmoles/hr/mg protein
Conversion Rates, sec-alcohol to methyl ketone ([7]; cells grown on methanol): 0.25 μmoles/hr/mg protein
Conversion Rates, sec-alcohol to methyl ketone ([7]; resting cells grown on methane): 0.32 μmoles/hr/mg protein
Conversion Rates, sec-alcohol to methyl ketone ([8]; cells grown on methanol): 0.70 μmoles/hr/mg protein
Conversion Rates, sec-alcohol to methyl ketone ([8]; methyl formate-grown): 0.48 μmoles/hr/mg protein
Conversion Rates, sec-alcohol to methyl ketone ([8]; resting cells grown on methane): 0.5 μmoles/hr/mg protein
Conversion Rates, sec-alcohol to methyl ketone ([9]; cells grown on methanol): 0.30 μmoles/hr/mg protein
Conversion Rates, sec-alcohol to methyl ketone ([9]; methyl formate-grown): 0.95 μmoles/hr/mg protein
Conversion Rates, sec-alcohol to methyl ketone ([9]; resting cells grown on methane): 0.25 μmoles/hr/mg protein
Conversion Rate, sec-alcohol to ketone ([10]; growth substrate Ethanol): 5.0 μmoles/hr/mg of protein
Conversion Rate, sec-alcohol to ketone ([10]; growth substrate Methanol): 5.9 μmoles/hr/mg of protein
Conversion Rate, sec-alcohol to ketone ([10]; growth substrate Methylamine): 5.2 μmoles/hr/mg of protein
Conversion Rate, sec-alcohol to ketone ([10]; growth substrate Methylformate): 5.6 μmoles/hr/mg of protein
Conversion Rate, sec-alcohol to ketone ([10]; growth substrate Propylamine): 4.1 μmoles/hr/mg of protein
Conversion Rate, secondary alcohol to methylketone [11]: 4.5 μmoles/hr/mg Protein
